The structures appear in SMILES notation. pIC50: −log10 of the molar value.

T2 sequence (P49841 whole entry): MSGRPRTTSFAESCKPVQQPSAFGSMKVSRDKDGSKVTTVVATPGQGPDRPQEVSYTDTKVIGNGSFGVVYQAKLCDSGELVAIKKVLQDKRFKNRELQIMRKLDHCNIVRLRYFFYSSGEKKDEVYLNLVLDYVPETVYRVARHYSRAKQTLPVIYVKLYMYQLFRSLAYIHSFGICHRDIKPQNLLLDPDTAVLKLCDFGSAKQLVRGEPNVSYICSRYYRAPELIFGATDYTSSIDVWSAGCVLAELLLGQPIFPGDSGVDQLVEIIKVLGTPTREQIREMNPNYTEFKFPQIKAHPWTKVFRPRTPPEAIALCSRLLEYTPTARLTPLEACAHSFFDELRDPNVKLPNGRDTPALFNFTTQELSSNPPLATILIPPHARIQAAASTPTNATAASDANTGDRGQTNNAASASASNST

In the first test the target is T1, JNK3 (Homo sapiens, UniProt P53779). Nature of the test: Kinase panel screening, single dose 10 μM, in duplicate: JNK3. The class given is biochemical. The conditions noted are these: read-out: inhibitory activity on JNK3. The protocol: (§1) Next, we used kinase panel screening in duplicate for compound 7a over 38 different kinases at a single-dose concentration of 10 μM (Table 2). The compound was indeed a selective JNK3 inhibitor with an excellent selectivity profile.
T1 sequence (P53779 whole entry): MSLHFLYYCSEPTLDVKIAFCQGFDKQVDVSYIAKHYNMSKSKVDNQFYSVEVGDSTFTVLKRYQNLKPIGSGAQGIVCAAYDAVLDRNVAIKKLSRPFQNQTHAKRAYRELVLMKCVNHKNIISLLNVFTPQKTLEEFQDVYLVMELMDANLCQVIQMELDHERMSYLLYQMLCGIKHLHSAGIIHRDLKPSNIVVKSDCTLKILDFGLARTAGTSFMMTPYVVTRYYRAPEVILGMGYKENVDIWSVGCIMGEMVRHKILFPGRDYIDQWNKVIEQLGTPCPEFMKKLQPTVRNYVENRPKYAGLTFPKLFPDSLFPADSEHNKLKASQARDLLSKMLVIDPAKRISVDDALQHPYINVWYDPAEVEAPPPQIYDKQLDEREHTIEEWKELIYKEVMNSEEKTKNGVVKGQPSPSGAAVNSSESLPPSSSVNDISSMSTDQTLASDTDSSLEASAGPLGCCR
As for `N#CCc1cc(-c2ccc(Cl)c(Cl)c2)n(-c2ccnc(N[C@H]3CCCN(C(=O)C4CC4)C3)n2)n1` [7a], the inhibition at 10 µM was 90%.

The next test deals with 38 selected protein kinases. In words: Kinase panel screening, single dose 10 μM, in duplicate: other kinases of the 38-kinase panel.
Conditions: not given
The class given is biochemical. Here is the method:
as §1
In the case of `N#CCc1cc(-c2ccc(Cl)c(Cl)c2)n(-c2ccnc(N[C@H]3CCCN(C(=O)C4CC4)C3)n2)n1` [7a], the “inhibition activity for most other kinases except GSK3β” value is “less than 20%”.

A further test concerns the target T2, GSK3β (Homo sapiens, UniProt P49841).
T2 construct: purchased Reaction Biology Corp. (Kinase HotSpot service)
In words: GSK3β enzymatic activity (IC50), Reaction Biology Kinase HotSpot. The class given is biochemical. The settings on record: Table 2, Kinase HotSpot service; read-out: Compound IC50* on GSK3β.
What is called pIC50 is the negative decadic logarithm of the IC50, by convention in mol/L. Regarding `N#CCc1cc(-c2ccc(Cl)c(Cl)c2)n(-c2ccnc(N[C@H]3CCCN(C(=O)C4CC4)C3)n2)n1` [7a], the pIC50 was 5.40.

The test is the same for the next values; noted with them: ratio of IC50 GSK3β / JNK3.
For `N#CCc1cc(-c2ccc(Cl)c(Cl)c2)n(-c2ccnc(N[C@H]3CCCN(C(=O)C4CC4)C3)n2)n1` [7a], the “selectivity for JNK3 over GSK3β in terms of IC50” value was “six fold selective”.

The next test deals with T1, JNK3. Nature of the test: JNK3 enzymatic inhibitory activity (IC50). The test is classed as biochemical.
Conditions: not given
An excerpt:
In an effort to reduce the molecular weight, the piperidine ring was diversified into pyrrolidine and azetidine with less carbon atoms.
`N#CCc1cc(-c2ccc(Cl)c(Cl)c2)n(-c2ccnc(N[C@@H]3CCN(C(=O)C4CC4)C3)n2)n1` [8a, (R)-2-(1-(2-((1-(cyclopropanecarbonyl)pyrrolidin-3-yl)amino)pyrimidin-4-yl)-5-(3,4-dichlorophenyl)-1H-pyrazol-3-yl)acetonitrile] showed a pIC50 of 6.64.
Same read-out and setting: to `N#CCc1cc(-c2ccc(Cl)c(Cl)c2)n(-c2ccnc(N[C@H]3CCN(C(=O)C4CC4)C3)n2)n1` [9a] belongs 5.51.

Staying with this test, now noted: enzymatic activity, Table 1; read-out: JNK3 IC50.
For `N#CCc1cc(-c2ccc(Cl)c(Cl)c2)n(-c2ccnc(N[C@H]3CCCN(C(=O)C4CC4)C3)n2)n1` [7a], the pIC50 is 6.20.
On the same count and under the same terms, to `N#CCc1cc(-c2ccc3ccccc3c2)n(-c2ccnc(N[C@H]3CCCN(C(=O)C4CC4)C3)n2)n1` [7b] belongs 6.08; to `N#CCc1cc(-c2ccc3c(c2)OCO3)n(-c2ccnc(N[C@H]3CCCN(C(=O)C4CC4)C3)n2)n1` [7c], 5.34; to `N#CCc1cc(-c2ccc3c(c2)CCO3)n(-c2ccnc(N[C@H]3CCCN(C(=O)C4CC4)C3)n2)n1` [7d], 5.10.
On the same count and under the same terms, then `N#CCc1cc(-c2ccc([N+](=O)[O-])cc2)n(-c2ccnc(N[C@H]3CCCN(C(=O)C4CC4)C3)n2)n1` [7f], with less than 5.00; and `N#CCc1cc(-c2ccc3ccccc3c2)n(-c2ccnc(N[C@@H]3CCN(C(=O)C4CC4)C3)n2)n1` [8b], with 6.44.
Same read-out and setting: to `N#CCc1cc(-c2ccc3c(c2)OCO3)n(-c2ccnc(N[C@@H]3CCN(C(=O)C4CC4)C3)n2)n1` [8c] belongs 5.66; to `N#CCc1cc(-c2ccc3c(c2)CCO3)n(-c2ccnc(N[C@@H]3CCN(C(=O)C4CC4)C3)n2)n1` [8d], 5.35; to `N#CCc1cc(-c2cccc([N+](=O)[O-])c2)n(-c2ccnc(N[C@@H]3CCN(C(=O)C4CC4)C3)n2)n1` [8e], less than 5.00.
Turning to `N#CCc1cc(-c2ccc([N+](=O)[O-])cc2)n(-c2ccnc(N[C@@H]3CCN(C(=O)C4CC4)C3)n2)n1` [8f], the negative-log IC50 (pIC50) is 5.10.
The same measure, in the same setting: to `N#CCc1cc(-c2ccc3ccccc3c2)n(-c2ccnc(N[C@H]3CCN(C(=O)C4CC4)C3)n2)n1` [9b] belongs 5.54; to `N#CCc1cc(-c2ccc3c(c2)OCO3)n(-c2ccnc(N[C@H]3CCN(C(=O)C4CC4)C3)n2)n1` [9c], 5.07; to `N#CCc1cc(-c2ccc3c(c2)CCO3)n(-c2ccnc(N[C@H]3CCN(C(=O)C4CC4)C3)n2)n1` [9d], 5.49.
Still for that read-out and setting: then `N#CCc1cc(-c2ccc(Cl)c(Cl)c2)n(-c2ccnc(NC3CN(C(=O)C4CC4)C3)n2)n1` [10a], with 5.55; and `N#CCc1cc(-c2ccc3ccccc3c2)n(-c2ccnc(NC3CN(C(=O)C4CC4)C3)n2)n1` [10b], with 5.68; and `N#CCc1cc(-c2ccc3c(c2)OCO3)n(-c2ccnc(NC3CN(C(=O)C4CC4)C3)n2)n1` [10c], with 5.25.
On the same count and under the same terms, then `NC(=O)Cc1cc(-c2ccc(Cl)c(Cl)c2)n(-c2ccnc(N[C@H]3CCCN(C(=O)C4CC4)C3)n2)n1` [11a], with 5.84; and `COC(=O)Cc1cc(-c2ccc(Cl)c(Cl)c2)n(-c2ccnc(N[C@H]3CCCN(C(=O)C4CC4)C3)n2)n1` [12a], with 6.04.
